For assay [1], the target named is T1, EGFR (Homo sapiens, UniProt P00533).
T1 construct: made in house; host or cells: baculovirus expression system
Put plainly: EGFR substrate phosphorylation assay (HTRF). Type of assay: biochemical. In outline: (§1)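 Baculovirus-expressed EGFR (0.8 nM) or ErbB2 (10 nM) in enzyme mix, preincubated 1 h at 20 °C with compound (0.00027–47.6 μM final), then 90 min at 20 °C with substrate mix of 20 μM ATP, 0.8 uM biotinylated Peptide C, MnCl2, MOPS pH 7.5. Phosphotyrosine by HTRF; pIC50 reported.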

In assay [2] the target is T2, ErbB2 (Homo sapiens, UniProt P04626).
T2 construct: made in house; host or cells: baculovirus expression system
T2 sequence (P04626 23-1255): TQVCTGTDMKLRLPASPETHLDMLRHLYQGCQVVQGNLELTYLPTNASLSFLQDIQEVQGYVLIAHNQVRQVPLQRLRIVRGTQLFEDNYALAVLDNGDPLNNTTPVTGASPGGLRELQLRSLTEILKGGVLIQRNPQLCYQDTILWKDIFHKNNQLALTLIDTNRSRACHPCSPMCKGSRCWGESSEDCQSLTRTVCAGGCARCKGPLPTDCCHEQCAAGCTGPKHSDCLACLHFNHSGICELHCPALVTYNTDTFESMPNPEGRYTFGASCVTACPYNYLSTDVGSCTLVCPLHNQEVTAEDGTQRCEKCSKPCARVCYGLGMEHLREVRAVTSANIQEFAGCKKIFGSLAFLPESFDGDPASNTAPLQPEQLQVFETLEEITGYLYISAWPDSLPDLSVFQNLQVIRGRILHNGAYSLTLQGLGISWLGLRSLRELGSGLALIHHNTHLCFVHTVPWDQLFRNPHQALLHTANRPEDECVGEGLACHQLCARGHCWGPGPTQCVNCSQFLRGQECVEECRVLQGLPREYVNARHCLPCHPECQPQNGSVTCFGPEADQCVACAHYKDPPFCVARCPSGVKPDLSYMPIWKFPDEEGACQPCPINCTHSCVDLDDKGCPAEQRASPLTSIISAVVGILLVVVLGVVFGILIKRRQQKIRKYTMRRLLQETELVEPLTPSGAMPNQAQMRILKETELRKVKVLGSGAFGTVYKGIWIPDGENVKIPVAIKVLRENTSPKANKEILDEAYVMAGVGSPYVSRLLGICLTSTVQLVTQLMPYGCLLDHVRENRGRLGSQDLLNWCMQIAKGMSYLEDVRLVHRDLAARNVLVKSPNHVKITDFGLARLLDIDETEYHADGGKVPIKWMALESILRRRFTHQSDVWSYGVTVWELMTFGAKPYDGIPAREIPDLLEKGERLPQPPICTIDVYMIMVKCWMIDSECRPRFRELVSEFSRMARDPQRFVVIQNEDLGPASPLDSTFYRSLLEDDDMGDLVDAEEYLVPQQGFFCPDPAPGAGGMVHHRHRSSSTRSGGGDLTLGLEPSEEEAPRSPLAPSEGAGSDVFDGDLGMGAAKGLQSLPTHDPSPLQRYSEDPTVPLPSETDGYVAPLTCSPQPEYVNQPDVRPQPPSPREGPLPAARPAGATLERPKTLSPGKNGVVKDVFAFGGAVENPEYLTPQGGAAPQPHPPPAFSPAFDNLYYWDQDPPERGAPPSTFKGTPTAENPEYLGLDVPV
The assay can be described thus: ErbB-2 substrate phosphorylation assay (HTRF). Type of assay: biochemical. A digest of the protocol: as §1
A general note: TR-FRET usually uses a lanthanide donor and a delayed reading to cut background.

The target in assay [3] is B-Raf (Homo sapiens, UniProt P15056). Put plainly: B-Raf Accelerated MEK ATPase assay (BRAMA), Method A or B. To be noted: Method B: final MEK 150 nM, single end point read. Type of assay: biochemical. In outline:
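Activated Raf plus non-phosphorylated MEK drives MEK-mediated ATP hydrolysis; ADP formation coupled via pyruvate kinase/lactate dehydrogenase to NADH oxidation. Method A read kinetically; Method B used 150 nM final MEK and a single end-point read.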

Assay [4] has as its system HN5 tumor cells. Put plainly: Cell growth inhibition assay (CellTiter-Glo), HN5. Type of assay: cell-based, Human. The note with it: Homo sapiens, 72 h; 3 days incubation. The method, then: (§2) Human breast tumor cells (BT474) were cultured in RPMI (Mediatech […]), containing 10% FBS (JRH Biosciences 12176) and 1% penicillin-streptomycin (Invitrogen 15140). Human head and neck tumor cells (HN5) were cultured in high glucose DMEM (Mediatech 50-013-PB) containing 10% FBS and 1% penicillin-streptomycin. Human colon tumor cells (Colo205) were cultured in RPMI (Mediatech 50-020-PB) containing 10% FBS and 1% penicillin-streptomycin. Human melanoma cancer cells (SK-MEL-28) were cultured in EMEM with nonessential amino acids (Mediatech 50-011-PB) containing 10% FBS, 1% sodium pyruvate (JT Baker 3354-04), and 1% penicillin-streptomycin. Human melanoma cancer cells (A375P F11s) were cultured in RPMI (Mediatech 50-020-PB) containing 10% FBS, 1% sodium pyruvate, and 1% penicillin-streptomycin. Human colon cancer cells (HT-29) were cultured in high glucose DMEM (Mediatech 50-013-PB) containing 10% FBS and 1% penicillin-streptomycin. Human melanoma cancer cells (SK-MEL-3) were cultured in McCoy's 5A (50-025-PB) containing 15% FBS, and 1% penicillin-streptomycin. All cell lines were maintained at 37° C. in a humidified 5% CO2, 95% air incubator. Cells were harvested using trypsin/EDTA (Invitrogen 25200), counted using a haemocytometer, and plated. For 96-well assays (using white full-area NUNC plates cat. #136102), cells were plated in 105 μL at the following densities (cells/well): HNS, 500; Colo 205, 500; SK-MEL-28, 500; A375P F11s, 500; HT-29, 500; SK-MEL-3, 500; and BT474, 3000. For 384-well assays (white full-area NUNC plates, cat. #781080), cells were plated in 48 μL at the following densities (cells/well): HNS, 500; Colo205, 500; SK-MEL-28, 500; A375P F11s, 500; HT-29, 500; SK-MEL-3, 500; and BT474, 2000.
(§3) The next day, compounds were diluted as follow: For 96-well assays, 13.5 μL of compound in DMSO were diluted using nine (9) serial 1:3 dilutions of 4.5 μL in 9 of DMSO. Medium (270 μL/well of RPMI with 10% FBS and 1% penicillin-streptomycin) was added to the plates. Aliquots (7 μL) were added to cells in the final assay giving a final DMSO concentration of 0.2%. For 384-well assays, 15 μL of compound in DMSO were diluted using nine (9) serial 1:3 dilutions of 5 μL in 10 μL of DMSO, followed by a further dilution of 5 μL of compound with 95 μL of medium, of which 2 μL were added to cells in the final assay giving a final DMSO concentration of 0.2%. Cells were incubated at 37° C., 5% CO2 for 3 days.
(§4) Total ATP was measured (as a surrogate estimate of cell number) using CellTiter-Glo® reagent (Promega G7571). Briefly, plates were removed from the incubator and allowed to equilibrate to room temperature for 30 minutes. CellTiter-Glo® (25 μL or 55 μL for 384-well or 96-well assays, respectively) reagent was added to each well and plates were shaken on an orbital plate shaker for 2 minutes. Plates were incubated without shaking for a further 30 minutes and read on an LJL Analyst GT reader in luminometer mode with an integration time of 0.5 seconds per well. Percent inhibition of cell growth was calculated relative to DMSO vehicle-treated control wells. Concentration of compound required to give 50% inhibition of vehicle-treated control cell growth (IC50) was interpolated using a 4-parameter fit for determining IC50 using the following equation: Y=A +((B−A)/(1+((C/X)̂D))) where […].
(ATP-based viability assays read luminescence as a measure of living cells.)

Assay [5] has as its system BT474 tumor cells. Put plainly: Cell growth inhibition assay (CellTiter-Glo), BT474. Type of assay: cell-based, Human. To be noted: Homo sapiens, BT-474, 72 h, 3 days incubation. The method, then:
as §2, §3, §4

Assay [6] relates to Colo205 tumor cells. The assay can be described thus: Cell growth inhibition assay (CellTiter-Glo), Colo205. Type of assay: cell-based, Human. To be noted: Homo sapiens, COLO 205, 72 h; 3 days incubation. A digest of the protocol:
(§5)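 Cells plated at 500 cells/well in their growth media, dosed next day with nine-step 1:3 compound dilutions (final DMSO 0.2%), then incubated 3 days at 37° C, 5% CO2. Total ATP read by CellTiter-Glo luminescence as a surrogate for cell number; IC50 interpolated from 4-parameter fit versus DMSO controls.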

Assay [7] relates to SK-MEL-28 tumor cells. Put plainly: Cell growth inhibition assay (CellTiter-Glo), SK-MEL-28. Type of assay: cell-based, Human. To be noted: Homo sapiens, SK-MEL-28, 72 h; 3 days incubation. In outline: as §5
For assay [8], the system named is HT-29 tumor cells. Put plainly: Cell growth inhibition assay (CellTiter-Glo), HT-29. Type of assay: cell-based, Human. The note with it: for IC50: Homo sapiens. The method, then: as §2, §3, §4
Assay [9] relates to A375P F11s tumor cells. Put plainly: Cell growth inhibition assay (CellTiter-Glo), A375P F11s. Type of assay: cell-based, Human. The note with it: for IC50: Homo sapiens. The method, then: as §2, §3, §4
Assay [10] has as its system SK-MEL-3 tumor cells. Put plainly: Cell growth inhibition assay (CellTiter-Glo), SK-MEL-3. Type of assay: cell-based, Human. To be noted: for IC50: Homo sapiens, SK-MEL3. The method, then:
as §2, §3, §4

Assay [11] relates to A375P F11s. The assay can be described thus: In vivo tumor growth, A375P F11s subcutaneous tumors. Details: species or system athymic mice; key: −: no response; +: growth delay (1-2×doubling); ++: growth delay (>2×doubling); +++: stable disease; ++++: partial regression; +++++: complete regression. To be noted: oral, 14-day period. How it is done: (§6) A375P F11s and Colo205 cells were cultured in RPMI 1640 medium supplemented with 10% fetal bovine serum and 1% sodium pyruvate or 10% fetal bovine serum and without sodium pyruvate, respectively. Tumor cells (1.75×10^6 A375P F11 s or 5×10^6 Colo205) were implanted subcutaneously into the right flank of athymic mice on Day 1. To facilitate their growth, A375P F11s cells were suspended in Matrigel diluted 1:1 in phosphate-buffered saline before implantation. When tumors had reached approximately 200 mm^3 in volume (Day 19-22), tumor-bearing mice were randomized into study groups (n=7 or 8). Animals were dosed orally once or twice daily for a 14-day period. The compound of Example 19b was dosed in a 0.5% HPMC/0.2% Tween 80 pH 7-8 vehicle. Tumor growth was measured twice a week using calipers for the duration of the study. Tumor volumes were calculated as a product of (length×width×width)/2 and median values were used to compare groups. Complete regressions (CR) were defined as three consecutive tumor measurements of ≦13.5 mm^3. Partial regressions were defined as three consecutive measurements of ≦50% of starting tumor volume. Tumor growth delay was defined as the difference in time taken for treated and control groups to reach 1000 mm^3 (T-C1000).

Assay [12] deals with Colo205. Put plainly: In vivo tumor growth, Colo205 subcutaneous tumors. On the set-up: species or system athymic mice; key: −: no response; +: growth delay (1-2×doubling); ++: growth delay (>2×doubling); +++: stable disease; ++++: partial regression; +++++: complete regression. The note with it: oral, 14-day period. How it is done: as §6

SMILES strings stand for the structures. Counter-ions that a name gives are not always drawn. Marks after values point to notes of the source that are not given here.

T1 sequence (P00533 25-1210): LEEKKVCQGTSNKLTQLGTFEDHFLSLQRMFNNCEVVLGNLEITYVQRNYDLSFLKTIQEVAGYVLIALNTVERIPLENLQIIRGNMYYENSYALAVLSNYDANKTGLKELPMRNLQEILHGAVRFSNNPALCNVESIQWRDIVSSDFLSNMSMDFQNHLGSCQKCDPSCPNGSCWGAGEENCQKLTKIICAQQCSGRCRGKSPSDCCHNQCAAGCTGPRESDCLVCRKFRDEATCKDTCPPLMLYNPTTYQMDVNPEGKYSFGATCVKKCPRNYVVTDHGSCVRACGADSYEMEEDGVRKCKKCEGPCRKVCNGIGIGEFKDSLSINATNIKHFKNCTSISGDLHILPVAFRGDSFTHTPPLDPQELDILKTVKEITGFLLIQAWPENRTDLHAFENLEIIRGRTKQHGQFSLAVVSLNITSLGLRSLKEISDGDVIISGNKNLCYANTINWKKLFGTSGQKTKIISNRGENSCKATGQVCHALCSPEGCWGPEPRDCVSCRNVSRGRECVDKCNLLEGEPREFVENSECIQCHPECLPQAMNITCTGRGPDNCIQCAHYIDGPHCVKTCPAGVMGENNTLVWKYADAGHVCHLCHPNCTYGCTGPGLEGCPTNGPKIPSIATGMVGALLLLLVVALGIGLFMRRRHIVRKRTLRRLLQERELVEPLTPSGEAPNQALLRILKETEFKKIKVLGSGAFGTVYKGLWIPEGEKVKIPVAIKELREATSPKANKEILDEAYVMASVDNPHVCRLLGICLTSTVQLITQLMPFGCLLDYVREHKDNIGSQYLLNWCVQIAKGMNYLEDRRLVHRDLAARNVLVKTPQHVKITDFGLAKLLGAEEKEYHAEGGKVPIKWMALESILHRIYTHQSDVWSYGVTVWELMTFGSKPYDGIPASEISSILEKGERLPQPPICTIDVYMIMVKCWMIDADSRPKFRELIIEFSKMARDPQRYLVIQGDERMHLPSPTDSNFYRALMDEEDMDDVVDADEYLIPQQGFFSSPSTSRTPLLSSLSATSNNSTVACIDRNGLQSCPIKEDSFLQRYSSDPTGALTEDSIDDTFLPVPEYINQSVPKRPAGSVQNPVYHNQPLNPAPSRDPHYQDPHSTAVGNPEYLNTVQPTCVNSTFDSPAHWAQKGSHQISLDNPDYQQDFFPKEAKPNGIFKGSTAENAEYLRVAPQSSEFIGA
Chain of B-Raf (P15056 whole entry): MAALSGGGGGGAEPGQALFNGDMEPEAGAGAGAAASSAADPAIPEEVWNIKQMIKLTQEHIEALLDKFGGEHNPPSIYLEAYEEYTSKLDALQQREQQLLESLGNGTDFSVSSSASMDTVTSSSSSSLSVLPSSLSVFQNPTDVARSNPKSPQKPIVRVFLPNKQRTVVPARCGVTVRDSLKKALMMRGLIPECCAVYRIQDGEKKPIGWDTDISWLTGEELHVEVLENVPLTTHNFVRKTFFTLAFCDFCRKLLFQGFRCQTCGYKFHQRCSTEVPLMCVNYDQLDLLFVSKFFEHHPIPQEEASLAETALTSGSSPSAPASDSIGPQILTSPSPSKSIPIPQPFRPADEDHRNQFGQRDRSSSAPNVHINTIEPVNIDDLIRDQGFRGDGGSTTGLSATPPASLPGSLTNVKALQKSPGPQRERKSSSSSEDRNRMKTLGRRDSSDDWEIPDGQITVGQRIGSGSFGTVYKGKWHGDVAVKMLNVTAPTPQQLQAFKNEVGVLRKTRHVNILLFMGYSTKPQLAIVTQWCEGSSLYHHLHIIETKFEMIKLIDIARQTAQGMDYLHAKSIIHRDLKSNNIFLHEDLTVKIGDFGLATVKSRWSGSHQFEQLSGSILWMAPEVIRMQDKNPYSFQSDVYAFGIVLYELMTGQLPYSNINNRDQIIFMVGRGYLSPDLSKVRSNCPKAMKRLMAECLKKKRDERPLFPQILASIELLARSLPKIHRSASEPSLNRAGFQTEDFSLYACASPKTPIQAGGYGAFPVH

In the case of `CCc1nc(-c2ccc(F)c(NS(=O)(=O)c3ccccc3)c2)c(-c2ccnc(Nc3ccc(N4CCN(C(C)=O)CC4)nc3)n2)s1` [Example 66], the IC50 was over 1000 nM in assay [1]; over 1000 nM in assay [2]; under 100 nM in [3]; over 1000 nM in assay [4]; over 1000 nM in assay [5]; 100 to 1000 nM in assay [6]. Further, the IC50 was 100 to 1000 nM in assay [7] and over 1000 nM in assay [8].

Consider `COCCN1CCN(c2ccc(Nc3nccc(-c4sc(C(C)C)nc4-c4cccc(NS(=O)(=O)c5ccccc5)c4)n3)cn2)CC1.Cl` [Example 7], for which the “Activity in A375P F11s Tumor Cells” value in assay [9] is “+++ (activity of less than 100 nM in A375P F11s tumor cells)”. In addition, the “Activity in HT-29 Tumor Cells” value in assay [8] was “+++ (activity of less than 100 nM in HT-29 tumor cells)”. Further, the “Activity in SK-MEL-3 Tumor Cells” value in [10] is “+++ (activity of less than 100 nM in SK-MEL-3 tumor cells)”.

For the molecule `COc1cc(C2CCN(CCS(C)(=O)=O)CC2)c(C)cc1Nc1nccc(-c2sc(C(C)C)nc2-c2cccc(NS(=O)(=O)c3c(F)cccc3F)c2)n1` [Example 115], the IC50 in assay [1] is over 1000 nM; in assay [2] it was over 1000 nM; in [3] it was under 100 nM; in assay [6] it was 100 to 1000 nM; in assay [7], under 100 nM; in assay [9], 100 to 1000 nM. Further, the IC50 in assay [8] and in [10] was 100 to 1000 nM each time.

Take `CC(C)(F)c1nc(-c2cccc(NS(=O)(=O)c3c(F)cccc3F)c2)c(-c2ccnc(Nc3ccc(N4CCN(CCF)CC4)c(F)c3)n2)s1` [Example 94]: the IC50 in assay [1] was over 1000 nM; in [2], over 1000 nM; in [3] it was 100 to 1000 nM; in assay [4], over 1000 nM; in assay [5] it was over 1000 nM; in [6] it was under 100 nM. The IC50 in assay [7] and in [8] was under 100 nM in each case.

`CCc1nc(-c2cccc(NS(=O)(=O)c3ccccc3)c2)c(-c2ccnc(Nc3cc(OC)c(OC)c(OC)c3)n2)s1` [Example 2, N-{3-[2-Ethyl-5-(2-{[3,4,5-tris(methyloxy)phenyl]amino}-4-pyrimidinyl)-1,3-thiazol-4-yl]phenyl}benzenesulfonamide]: the half-maximal inhibitory concentration (IC50) in [1] was over 1000 nM; in assay [2], over 1000 nM; in assay [4], 100 to 1000 nM; in assay [5], over 1000 nM; in assay [6], under 100 nM; in [7] it was under 100 nM. Moreover, the figures for the IC50 in assay [9], in assay [8] and in [10] were under 100 nM, 100 to 1000 nM and under 100 nM, respectively.

On to `COc1cc(N2CCN(CCS(C)(=O)=O)CC2)c(C)cc1Nc1nccc(-c2sc(C(C)C)nc2-c2cccc(NS(=O)(=O)c3c(F)cccc3F)c2)n1` [Example 19b, 2,6-Difluoro-N-(3-(2-(1-methylethyl)-5-(24(5-methyl-2-(methyloxy)-4-(4-[2-(methylsulfonyl)ethyl]-1-piperazinyl}phenyl)amino]-4-pyrimidinyl}-1,3-thiazol-4-yl)phenyl]benzenesulfonamide dihydrochloride], for which the Response result is reported as “−” in [11] (1 mg/kg bid); “+” in assay [11] (3 mg/kg bid); “++” in assay [11] (10 mg/kg bid); “++++” in assay [11] (30 mg/kg bid); “+++ (during dosing)*” in assay [11] (30 mg/kg qd, during dosing); “++” in [12] (30 mg/kg bid). Also, the Response result is reported as “−” in assay [12] (30 mg/kg qd), “++++” in assay [12] (100 mg/kg bid) and “++++” in assay [12] (300 mg/kg qd).

Consider `COc1c(NS(=O)(=O)c2c(F)cccc2F)cccc1-c1nc(N2CCOCC2)sc1-c1ccnc(Nc2ccc3c(c2)OCCO3)n1` [Example 170], for which the IC50 in assay [1] was over 1000 nM; in [2] it was over 1000 nM; in assay [3] it was under 100 nM; in assay [6] it was under 100 nM; in assay [7], 100 to 1000 nM; in [9] it was 100 to 1000 nM. Moreover, the IC50 in assay [8] and in assay [10] was 100 to 1000 nM in each case.

A word on the IC50: it is the concentration needed to halve the response being measured.

The values are drawn from patent US20110319392A1, “Thiazole Sulfonamide And Oxazole Sulfonamide Kinase Inhibitors” (priority 2009, published 2011).
